Experimental data reported in BindingDB's records for doi:10.1016/S0960-894X(01)80999-9 (1993).

What was measured:
[1] = In vitro antagonistic activity towards LTB4 receptor was evaluated by inhibition of binding of [3H]LTB4 to human neutrophils
[2] = target: Leukotriene B4 receptor (Cavia porcellus); test: Compound was evaluated for inhibition of binding of [3H]LTB4 to LTB4 receptor in guinea-pig lung membranes

SMILES	Ki [1] [nM]	Ki [2] [nM]
CCc1cc(C(C)=O)c(O)cc1OCCCOc1ccc(C(=O)c2cccc(C(=O)O)c2)cc1CCC(=O)O [3-[2-[3-(4-acetyl-2-ethyl-5-olatophenoxy)propoxy]-5-(3-carboxylatobenzoyl)phenyl]propanoate]	6.8	
COc1ccc(/C=C/CCCCOc2ccc(C(=O)c3cccc(C(=O)O)c3)cc2CCC(=O)O)cc1 [(Z)-3-{3-(2-Carboxy-ethyl)-4-[6-(4-methoxy-phenyl)-hex-5-enyloxy]-benzoyl}-benzoic acid]	7.8	
COc1ccc(/C=C/CCCCOc2ccc3c(=O)c4cc(C(=O)O)ccc4oc3c2CCC(=O)O)cc1 [LY-210073]		45
CCc1cc(C(C)=O)c(O)cc1OCCCOc1ccc2c(=O)c3cc(C(=O)O)ccc3oc2c1 [disodium 6-[3-(4-acetyl-2-ethyl-5-olatophenoxy)propoxy]-9-oxo-9H-2-xanthenecarboxylate]	751	
